Laboratory results as given in US4812409A, “Hydrolyzable fluorescent substrates and analytical determinations using same” (Eastman Kodak Company, priority 1986, dated 1989).

Legend:
Assay type in all cases: biochemical
carboxylesterase, Type I = assay: Determination of hydrolytic enzymes: carboxylesterase Type I; settings: pH 7.8, 25° C., ex 540 nm, em 595 nm
Method: (§1) Test solutions were prepared with the following: 50 μl of substrate (1 mg/μl methanol), […] of 0.05 molar potassium phosphate buffer at the indicated pH (near the optimum for each enzyme) and 10 μl of enzyme. Enzymes to be determined included carboxylesterase, Type I (pH 7.8) and Type II (pH 6.0), aminoacylase, Grade I (pH 7.0), and trypsin, Type I and III (pH 7.8). Sample preparations and testing were done in an area protected from light. The enzyme solutions were kept at 0° C. prior to use, and assays were run at 25° C. with fluorescence measured at an excitation of 540 nm and an emission of 595 nm.

trypsin, Type I = molecular target: T1, trypsin, Type I (Bos taurus, UniProt P00760); assay: Determination of hydrolytic enzymes: trypsin Type I; settings: pH 7.8, 25° C., ex 540 nm, em 595 nm
T1 sequence (P00760 24-246): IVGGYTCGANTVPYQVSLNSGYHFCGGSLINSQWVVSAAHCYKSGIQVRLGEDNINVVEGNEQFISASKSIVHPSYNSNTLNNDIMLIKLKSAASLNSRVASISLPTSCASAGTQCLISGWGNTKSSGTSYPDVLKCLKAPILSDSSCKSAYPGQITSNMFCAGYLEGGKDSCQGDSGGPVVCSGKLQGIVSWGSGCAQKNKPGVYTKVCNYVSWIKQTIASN
Method: as §1

[1] = test system: carboxylesterase, Type II; assay: Determination of hydrolytic enzymes: carboxylesterase Type II; settings: Final Enzyme Activity 15 I.U., pH 6.0, 25° C., ex 540 nm, em 595 nm
Method: as §1

trypsin, Type III = molecular target: T2, trypsin, Type III (Bos taurus, UniProt P00760); assay: Determination of hydrolytic enzymes: trypsin Type III; settings: pH 7.8, 25° C., ex 540 nm, em 595 nm
T2 sequence (P00760 24-246): T1 sequence (P00760 24-246)
Method: as §1

aminoacylase, Grade I = molecular target: T3, aminoacylase, Grade I (Sus scrofa, UniProt P37111); assay: Determination of hydrolytic enzymes: aminoacylase Grade I; settings: Final Enzyme Activity 3,000 I.U., pH 7.0, 25° C., ex 540 nm, em 595 nm
T3 sequence (P37111 2-407 limits assumed): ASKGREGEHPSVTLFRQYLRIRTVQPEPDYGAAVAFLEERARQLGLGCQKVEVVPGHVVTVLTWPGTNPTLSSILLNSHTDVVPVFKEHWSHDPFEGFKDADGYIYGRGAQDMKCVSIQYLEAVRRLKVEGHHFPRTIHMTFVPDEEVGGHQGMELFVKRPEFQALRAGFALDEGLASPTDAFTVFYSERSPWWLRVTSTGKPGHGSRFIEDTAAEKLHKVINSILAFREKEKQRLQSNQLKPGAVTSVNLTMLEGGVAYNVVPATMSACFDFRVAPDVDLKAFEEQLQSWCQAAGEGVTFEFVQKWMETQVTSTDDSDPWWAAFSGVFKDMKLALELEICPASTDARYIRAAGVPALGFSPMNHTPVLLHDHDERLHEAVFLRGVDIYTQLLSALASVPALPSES
Method: as §1

SMILES: CC(=O)Nc1ccc2c3c(cccc13)C(=O)C=C2 [Example 5]
- Relative Fluorescence (minus control with no enzyme) (carboxylesterase, Type I; Final Enzyme Activity 9.6 I.U., 0 Min): 2.7
- Relative Fluorescence (minus control with no enzyme) (carboxylesterase, Type I; Final Enzyme Activity 9.6 I.U., 10 Min): 3.6
- Relative Fluorescence (minus control with no enzyme) (carboxylesterase, Type I; Final Enzyme Activity 9.6 I.U., 15 Min): 4.1
- Relative Fluorescence (minus control with no enzyme) (carboxylesterase, Type I; Final Enzyme Activity 9.6 I.U., 30 Min): 4.4
- Relative Fluorescence (minus control with no enzyme) (carboxylesterase, Type I; Final Enzyme Activity 96 I.U., 0 Min): 3.0
- Relative Fluorescence (minus control with no enzyme) (carboxylesterase, Type I; Final Enzyme Activity 96 I.U., 10 Min): 6.1
- Relative Fluorescence (minus control with no enzyme) (carboxylesterase, Type I; Final Enzyme Activity 96 I.U., 15 Min): 7.9
- Relative Fluorescence (minus control with no enzyme) (carboxylesterase, Type I; Final Enzyme Activity 96 I.U., 30 Min): 12.5
- Relative Fluorescence (minus control with no enzyme) (trypsin, Type I; Final Enzyme Activity 5,000 I.U., 0 Min): 0
- Relative Fluorescence (minus control with no enzyme) (trypsin, Type I; Final Enzyme Activity 5,000 I.U., 10 Min): 0.5
- Relative Fluorescence (minus control with no enzyme) (trypsin, Type I; Final Enzyme Activity 5,000 I.U., 15 Min): 0.6
- Relative Fluorescence (minus control with no enzyme) (trypsin, Type I; Final Enzyme Activity 5,000 I.U., 30 Min): 0.8
- Relative Fluorescence (minus control with no enzyme) (trypsin, Type I; Final Enzyme Activity 50,000 I.U., 0 Min): 0
- Relative Fluorescence (minus control with no enzyme) (trypsin, Type I; Final Enzyme Activity 50,000 I.U., 10 Min): 0.7
- Relative Fluorescence (minus control with no enzyme) (trypsin, Type I; Final Enzyme Activity 50,000 I.U., 15 Min): 0.9
- Relative Fluorescence (minus control with no enzyme) (trypsin, Type I; Final Enzyme Activity 50,000 I.U., 30 Min): 1.5
- Relative Fluorescence (minus control with no enzyme) ([1]; 0 Min): 2.0
- Relative Fluorescence (minus control with no enzyme) ([1]; 10 Min): 5.4
- Relative Fluorescence (minus control with no enzyme) ([1]; 15 Min): 8.0
- Relative Fluorescence (minus control with no enzyme) ([1]; 30 Min): 15.8
- Relative Fluorescence (minus control with no enzyme) (trypsin, Type III; Final Enzyme Activity 6,000 I.U., 0 Min): 2.7
- Relative Fluorescence (minus control with no enzyme) (trypsin, Type III; Final Enzyme Activity 6,000 I.U., 10 Min): 2.8
- Relative Fluorescence (minus control with no enzyme) (trypsin, Type III; Final Enzyme Activity 6,000 I.U., 15 Min): 3.0
- Relative Fluorescence (minus control with no enzyme) (trypsin, Type III; Final Enzyme Activity 6,000 I.U., 30 Min): 3.6
- Relative Fluorescence (minus control with no enzyme) (trypsin, Type III; Final Enzyme Activity 60,000 I.U., 0 Min): 2.2
- Relative Fluorescence (minus control with no enzyme) (trypsin, Type III; Final Enzyme Activity 60,000 I.U., 10 Min): 3.5
- Relative Fluorescence (minus control with no enzyme) (trypsin, Type III; Final Enzyme Activity 60,000 I.U., 15 Min): 3.4
- Relative Fluorescence (minus control with no enzyme) (trypsin, Type III; Final Enzyme Activity 60,000 I.U., 30 Min): 4.3
- Relative Fluorescence (minus control with no enzyme) (aminoacylase, Grade I; 0 Min): 1.5
- Relative Fluorescence (minus control with no enzyme) (aminoacylase, Grade I; 10 Min): 2.0
- Relative Fluorescence (minus control with no enzyme) (aminoacylase, Grade I; 15 Min): 2.1
- Relative Fluorescence (minus control with no enzyme) (aminoacylase, Grade I; 30 Min): 2.3
